Measured values as given in patent US20030203819A1, “Synergistically acting herbicidal mixtures” (priority 1998, published 2003).

What was measured:
Type in all cases: in vivo
Stellaria media = assay: Herbicidal action in the field (post-emergence treatment)
Description: (§1) The mixtures according to the invention were applied pre- or post-emergence (foliar treatment). The herbicidal compounds of component B were applied in the formulation in which they are present as commercially available product.
(§2) Some of the experiments were greenhouse experiments and some were field trials on mini plots (on a site with sandy loam (pH 6.2 to 7.0) or sandy clay (pH 5.0 to 6.7) as the soil).
(§3) The harmful plants differed with regard to size and developmental state; on average, they were 5 to 20 cm long, depending on the growth habit.
(§4) The herbicidally active compounds of components A) and B) were applied in succession or jointly, in the latter case in some cases as a tank mix and in some cases as a readymix, in the form of emulsions, aqueous solutions or suspensions, the vehicle being water ([…]). In the case of the field trials, application was effected with the aid of a mobile plot sprayer.
(§5) The test period extended over 3 to 8 weeks, and the stands were also observed at later points in time.
(§6) Damage by the herbicidal compositions was evaluated with reference to a scale of 0% to 100% in comparison with untreated control plots. 0 means no damage and 100 means complete destruction of the plants.
(§7) In these examples, the value E at which only an additive effect of the individual active ingredients is to be expected was calculated by the method of S. R. Colby (Calculating synergistic and antagonistic responses of herbicide combinations, Weeds 15, 20 pp (1967).

Abutilon theophrasti [1] = assay: Herbicidal action in the greenhouse (post-emergence treatment)
Description: as §1, §2, §3, §4, §5, §6, §7

Setaria viridis [2] = assay: as above; details: isoxaflutole 31.2 g/ha a.s.
Description: as §1, §2, §3, §4, §5, §6, §7

Ipomoea ssp. = assay: as above
Description: as §1, §2, §3, §4, §5, §6, §7

Setaria viridis [3] = assay: Herbicidal action in the field (post-emergence treatment); details: Sethoxydim 160 g/ha a.s.
Description: as §1, §2, §3, §4, §5, §6, §7

Abutilon theophrasti [4] = assay: as above
Description: as §1, §2, §3, §4, §5, §6, §7

Bidens pilosa = assay: as above
Description: as §1, §2, §3, §4, §5, §6, §7

Cyperus species = assay: as above
Description: as §1, §2, §3, §4, §5, §6, §7

Galium aparine = assay: as above
Description: as §1, §2, §3, §4, §5, §6, §7

Richardia brasiliensis = assay: as above; details: Bentazone 1440 g/ha a.s.
Description: as §1, §2, §3, §4, §5, §6, §7

Veronica ssp. = assay: Herbicidal action in the greenhouse (post-emergence treatment)
Description: as §1, §2, §3, §4, §5, §6, §7

Geranium carolinianum = assay: Herbicidal action in the field (post-emergence treatment); details: glyphosate 840 g/ha a.s.
Description: as §1, §2, §3, §4, §5, §6, §7

Sorghum halepense = assay: as above
Description: as §1, §2, §3, §4, §5, §6, §7

Echinochloa crus-galli = assay: Herbicidal action in the greenhouse (post-emergence treatment)
Description: as §1, §2, §3, §4, §5, §6, §7

Alopecurus myosuroides [5] = assay: as above
Description: as §1, §2, §3, §4, §5, §6, §7

Amaranthus retroflexus [6] = assay: as above
Description: as §1, §2, §3, §4, §5, §6, §7

Phalaris spec. = assay: Herbicidal action in the field (post-emergence treatment); details: 2,4-D 500 g/ha a.s.
Description: as §1, §2, §3, §4, §5, §6, §7

Alopecurus myosuroides [7] = assay: as above; details: fenoxaprop-ethyl 83 g/ha a.s.
Description: as §1, §2, §3, §4, §5, §6, §7

Anthemis mixta = assay: as above; details: carfentrazone-ethyl 30 g/ha a.s.
Description: as §1, §2, §3, §4, §5, §6, §7

Ipomoea lacunosa = assay: as above; details: nicosulfuron 35 g/ha a.s.
Description: as §1, §2, §3, §4, §5, §6, §7

Setaria faberi [8] = assay: Herbicidal action in the greenhouse (post-emergence treatment); details: glufosinate-ammonium 31.2 g/ha a.s.
Description: as §1, §2, §3, §4, §5, §6, §7

Digitaria adscendens = assay: Herbicidal action in the field (post-emergence treatment)
Description: as §1, §2, §3, §4, §5, §6, §7

Ipomoea acuminata = assay: as above
Description: as §1, §2, §3, §4, §5, §6, §7

Sorghum bicolor = assay: as above; details: atrazine 840 g/ha a.s.
Description: as §1, §2, §3, §4, §5, §6, §7

Setaria faberi [9] = assay: as above
Description: as §1, §2, §3, §4, §5, §6, §7

Digitaria sanguinalis [10] = assay: Herbicidal action in the greenhouse (pre-emergence treatment); details: Dimethenamid 125 g/ha a.s.
Description: as §1, §2, §3, §4, §5, §6, §7

Cyperus iria = assay: as above; details: Dimethenamid 62.5 g/ha a.s.
Description: as §1, §2, §3, §4, §5, §6, §7

Amaranthus retroflexus [11] = assay: as above; details: Dimethenamid 125 g/ha a.s.
Description: as §1, §2, §3, §4, §5, §6, §7

Panicum miliaceum = assay: Herbicidal action in the field (post-emergence treatment); details: dimethenamid 841 g/ha a.s.
Description: as §1, §2, §3, §4, §5, §6, §7

Digitaria sanguinalis [12] = assay: as above; details: Cycloxydim 100 g/ha a.s.
Description: as §1, §2, §3, §4, §5, §6, §7

Chenopodium album = assay: as above; details: Cycloxydim 100 g/ha a.s.
Description: as §1, §2, §3, §4, §5, §6, §7

Brachiaria plantaginea = assay: as above; details: pendimethalin 990 g/ha a.s.
Description: as §1, §2, §3, §4, §5, §6, §7

[13] = system: Ipomoea purpurea var. diversifolia; assay: as above
Description: as §1, §2, §3, §4, §5, §6, §7

[14] = glufosinate-ammonium 400 g/ha a.s.

CC(C)c1ccc(NC(=O)N(C)C)cc1 [isoproturon, reference compound]
Damage (Stellaria media; isoproturon 1000 g/ha a.s.): 94%

CCOCN(C(=O)CCl)c1c(C)cccc1CC [acetochlor, reference compound]
Damage (Abutilon theophrasti [1]; acetochlor 31.2 g/ha a.s.): 0%

CS(=O)(=O)c1cc(C(F)(F)F)ccc1C(=O)c1cnoc1C1CC1 [isoxaflutole, reference compound]
Damage (Setaria viridis [2]): 30%
Damage (Ipomoea ssp.; isoxaflutole 62.5 g/ha a.s.): 55%

CCC/C(=N\OCC)C1=C(O)CC(CC(C)SCC)CC1=O (stereo not drawn) [Sethoxydim, sethoxydim, reference compound]
Damage (Setaria viridis [3]): 93%
Damage (Abutilon theophrasti [4]; Sethoxydim 160 g/ha a.s.): 0%

CSc1nnc(C(C)(C)C)c(=O)n1N [metribuzin, reference compound]
Damage (Bidens pilosa; metribuzin 200 g/ha a.s.): 38%
Damage (Cyperus species; metribuzin 200 g/ha a.s.): 50%

O=C(O)c1cc(Oc2ccc(C(F)(F)F)cc2Cl)ccc1[N+](=O)[O-] [acifluorfen, reference compound]
Damage (Galium aparine; acifluorfen 100 g/ha a.s.): 48%

CC(C)N1C(=O)c2ccccc2NS1(=O)=O [Bentazone, bentazone, reference compound]
Damage (Richardia brasiliensis): 77%

Cc1cc(Cl)ccc1OCC(=O)O [MCPA, reference compound]
Damage (Cyperus species; MCPA 600 g/ha a.s.): 5%

O=C(O)c1c(Cl)ccc2cc(Cl)cnc12 [Quinclorac, quinclorac, reference compound]
Damage (Veronica ssp.; Quinclorac 500 g/ha a.s.): 80%
Damage (Ipomoea ssp.; Quinclorac 250 g/ha a.s.): 70%

O=C(O)CNCP(=O)(O)O [glyphosate, reference compound]
Damage (Geranium carolinianum): 97%
Damage (Sorghum halepense; glyphosate 840 g/ha a.s.): 74%

COc1cc(OC)nc(Sc2cccc(Cl)c2C(=O)O)n1 [pyrithiobac-sodium, reference compound]
Damage (Echinochloa crus-galli; pyrithiobac-sodium 7.8 g/ha a.s.): 10%

CC(C)C1(C)N=C(c2ncccc2C(=O)O)NC1=O (stereo not drawn) [imazapyr, reference compound]
Damage (Ipomoea ssp.; imazapyr 62.5 g/ha a.s.): 85%
Damage (Alopecurus myosuroides [5]; imazapyr 250 g/ha a.s.): 90%

O=C(O)COc1ccc(Cl)cc1Cl [2,4-D, reference compound]
Damage (Abutilon theophrasti [1]; 2,4-D 62.5 g/ha a.s.): 40%
Damage (Amaranthus retroflexus [6]; 2,4-D 62.5 g/ha a.s.): 20%
Damage (Phalaris spec.): 20%

CCOC(=O)C(C)Oc1ccc(Oc2nc3ccc(Cl)cc3o2)cc1 (stereo not drawn) [fenoxaprop-ethyl, reference compound]
pest or weed control at 31.2 g/ha (Amaranthus retroflexus [6]; Amaranthus retroflexus, post-emergence, fenoxaprop-ethyl (title: fenoxaprop-P-ethyl) 31.2 g/ha a.s., read-out: Damage): 0%
Damage (Alopecurus myosuroides [7]): 82%
Damage (Galium aparine; fenoxaprop-ethyl 83 g/ha a.s.): 0%

COc1cc(OC)n2nc(S(=O)(=O)Nc3c(Cl)ccc(C)c3Cl)nc2n1 [metosulam, reference compound]
Damage (Veronica ssp.; metosulam 1.9 g/ha a.s.): 40%

imazamethabenz [reference compound]
Damage (Stellaria media; imazamethabenz 525 g/ha a.s.): 0%

CCOC(=O)C(Cl)Cc1cc(-n2nc(C)n(C(F)F)c2=O)c(F)cc1Cl (stereo not drawn) [carfentrazone-ethyl, reference compound]
pest or weed control at 0.9 g/ha (Amaranthus retroflexus [6]; Amaranthus retroflexus, post-emergence, read-out: Damage, carfentrazone-ethyl 0.9 g/ha a.s.): 60%
Damage (Anthemis mixta): 0%

COc1cc(OC)nc(NC(=O)NS(=O)(=O)c2ncccc2C(=O)N(C)C)n1 [nicosulfuron, reference compound]
pest or weed control at 1.9 g/ha (Amaranthus retroflexus [6]; Amaranthus retroflexus, post-emergence, nicosulfuron 1.9 g/ha a.s., read-out: Damage): 65%
Damage (Ipomoea lacunosa): 39%

CP(=O)(O)CCC(N)C(=O)O (stereo not drawn) [glufosinate-ammonium, reference compound]
Damage (Echinochloa crus-galli; glufosinate-ammonium 15.6 g/ha a.s.): 0%
Damage (Setaria faberi [8]): 65%
Damage (Digitaria adscendens; [14]): 75%
Damage (Ipomoea acuminata; [14]): 75%

CS(=O)(=O)c1ccc(C(=O)C2C(=O)CCCC2=O)c(Cl)c1 [sulcotrione, reference compound]
pest or weed control at 250 g/ha (Amaranthus retroflexus [6]; Amaranthus retroflexus, post-emergence, read-out: Damage, sulcotrione 250 g/ha a.s.): 45%
Damage (Ipomoea acuminata; sulcotrione 300 g/ha a.s.): 86%

CCNc1nc(Cl)nc(NC(C)C)n1 [atrazine, reference compound]
Damage (Sorghum bicolor): 27%
Damage (Abutilon theophrasti [4]; atrazine 1120 g/ha a.s.): 32%
Damage (Setaria faberi [9]; atrazine 1120 g/ha a.s.): 20%

COCC(C)N(C(=O)CCl)c1c(C)csc1C (stereo not drawn) [Dimethenamid, dimethenamid, reference compound]
Damage (Veronica ssp.; Dimethenamid 500 g/ha a.s. (Table 43)): 70%
Damage (Veronica ssp.; Dimethenamid 500 g/ha a.s. (Table 45)): 70%
pest or weed control at 500 g/ha (Amaranthus retroflexus [6]; Amaranthus retroflexus, post-emergence, Dimethenamnid 500 g/ha a.s., read-out: Damage): 10%
Damage (Digitaria sanguinalis [10]): 80%
Damage (Cyperus iria): 95%
Damage (Amaranthus retroflexus [11]): 80%
Damage (Panicum miliaceum): 23%
Damage (Sorghum halepense; dimethenamid 1120 g/ha a.s.): 7%

COc1nc(NC(=O)NS(=O)(=O)c2ccccc2C(F)(F)F)nc(C(F)(F)F)n1 [N-[[[4-methoxy-6-(trifluoromethyl)-1,3,5-triazin-2-yl]amino]carbonyl]-2-(trifluoromethyl)benzenesulfonamide, reference compound]
Damage (Setaria faberi [9]; the benzenesulfonamide (B2) 50 g/ha a.s.): 0%

COC(=O)c1c(Cl)nn(C)c1S(=O)(=O)NC(=O)Nc1nc(OC)cc(OC)n1 [halosulfuron-methyl, reference compound]
pest or weed control at 7.8 g/ha (Amaranthus retroflexus [6]; Amaranthus retroflexus, post-emergence, read-out: Damage, halosulfuron-methyl 7.8 g/ha a.s.): 80%
Damage (Alopecurus myosuroides [5]; halosulfuron-methyl 31.2 g/ha a.s.): 45%

CCCCCCCCSC(=O)Oc1cc(Cl)nnc1-c1ccccc1 [pyridate, reference compound]
Damage (Bidens pilosa; pyridate 450 g/ha a.s.): 25%
Damage (Setaria faberi [9]; pyridate 450 g/ha a.s.): 0%

CC(C)N(C(=O)COc1nnc(C(F)(F)F)s1)c1ccc(F)cc1 [flufenacet, reference compound]
Damage (Digitaria adscendens; flufenacet 600 g/ha a.s.): 58%

CCOC(=O)/C(Cl)=C/c1cc(N2C(=O)C3=C(CCCC3)C2=O)ccc1Cl [cinidon-ethyl, reference compound]
Damage (Galium aparine; cinidon-ethyl 7.8 g/ha a.s.): 90%

CC(C)C1(C)N=C(c2nc3ccccc3cc2C(=O)O)NC1=O (stereo not drawn) [imazaquin, reference compound]
Damage (Bidens pilosa; imazaquin 150 g/ha a.s.): 45%

CN(C)C(=O)Nc1ccc(Cl)c(Cl)c1 [diuron, reference compound]
Damage (Alopecurus myosuroides [5]; diuron 250 g/ha a.s.): 80%

N#Cc1cc(Br)c(O)c(Br)c1 [bromoxynil, reference compound]
Damage (Galium aparine; bromoxynil 470 g/ha a.s.): 84%

CCCC(=NOCC)C1=C(O)CC(C2CCCSC2)CC1=O (stereo not drawn) [Cycloxydim, cycloxydim, reference compound]
Damage (Digitaria sanguinalis [12]): 81%
Damage (Chenopodium album): 0%

CCC(CC)Nc1c([N+](=O)[O-])cc(C)c(C)c1[N+](=O)[O-] [pendimethalin, reference compound]
Damage (Brachiaria plantaginea): 0%

Nc1cnn(-c2ccccc2)c(=O)c1Cl [chloridazon, reference compound]
Damage ([13]; chloridazon 1720 g/ha a.s.): 40%

CCc1cnc(C2=NC(C)(C(C)C)C(=O)N2)c(C(=O)O)c1 (stereo not drawn) [imazethapyr, reference compound]
Damage (Ipomoea acuminata; imazethapyr 70 g/ha a.s.): 33%
Damage ([13]; imazethapyr 70 g/ha a.s.): 58%
